In patent US10442778B2, “N1-phenylpropane-1,2-diamine compounds with selective activity in voltage-gated sodium channels” (Merck Sharp & Dohme Corp., priority 2016, dated 2019):

Key:
[1] = biological target: T1, human Nav1.7 channels stably expressed in HEK 293 cells (Homo sapiens, UniProt Q15858); experiment: IonWorks Quattro automated patch-clamp, inactivated state block of Nav1.7; type: cell-based; conditions: double-pulse protocol, read-out: potency for the Nav 1.7 sodium ion channel (as measured by IonWorks)
T1 construct: expressed in transfected cells; host or cells: HEK 293
T1 sequence (Q15858 whole entry): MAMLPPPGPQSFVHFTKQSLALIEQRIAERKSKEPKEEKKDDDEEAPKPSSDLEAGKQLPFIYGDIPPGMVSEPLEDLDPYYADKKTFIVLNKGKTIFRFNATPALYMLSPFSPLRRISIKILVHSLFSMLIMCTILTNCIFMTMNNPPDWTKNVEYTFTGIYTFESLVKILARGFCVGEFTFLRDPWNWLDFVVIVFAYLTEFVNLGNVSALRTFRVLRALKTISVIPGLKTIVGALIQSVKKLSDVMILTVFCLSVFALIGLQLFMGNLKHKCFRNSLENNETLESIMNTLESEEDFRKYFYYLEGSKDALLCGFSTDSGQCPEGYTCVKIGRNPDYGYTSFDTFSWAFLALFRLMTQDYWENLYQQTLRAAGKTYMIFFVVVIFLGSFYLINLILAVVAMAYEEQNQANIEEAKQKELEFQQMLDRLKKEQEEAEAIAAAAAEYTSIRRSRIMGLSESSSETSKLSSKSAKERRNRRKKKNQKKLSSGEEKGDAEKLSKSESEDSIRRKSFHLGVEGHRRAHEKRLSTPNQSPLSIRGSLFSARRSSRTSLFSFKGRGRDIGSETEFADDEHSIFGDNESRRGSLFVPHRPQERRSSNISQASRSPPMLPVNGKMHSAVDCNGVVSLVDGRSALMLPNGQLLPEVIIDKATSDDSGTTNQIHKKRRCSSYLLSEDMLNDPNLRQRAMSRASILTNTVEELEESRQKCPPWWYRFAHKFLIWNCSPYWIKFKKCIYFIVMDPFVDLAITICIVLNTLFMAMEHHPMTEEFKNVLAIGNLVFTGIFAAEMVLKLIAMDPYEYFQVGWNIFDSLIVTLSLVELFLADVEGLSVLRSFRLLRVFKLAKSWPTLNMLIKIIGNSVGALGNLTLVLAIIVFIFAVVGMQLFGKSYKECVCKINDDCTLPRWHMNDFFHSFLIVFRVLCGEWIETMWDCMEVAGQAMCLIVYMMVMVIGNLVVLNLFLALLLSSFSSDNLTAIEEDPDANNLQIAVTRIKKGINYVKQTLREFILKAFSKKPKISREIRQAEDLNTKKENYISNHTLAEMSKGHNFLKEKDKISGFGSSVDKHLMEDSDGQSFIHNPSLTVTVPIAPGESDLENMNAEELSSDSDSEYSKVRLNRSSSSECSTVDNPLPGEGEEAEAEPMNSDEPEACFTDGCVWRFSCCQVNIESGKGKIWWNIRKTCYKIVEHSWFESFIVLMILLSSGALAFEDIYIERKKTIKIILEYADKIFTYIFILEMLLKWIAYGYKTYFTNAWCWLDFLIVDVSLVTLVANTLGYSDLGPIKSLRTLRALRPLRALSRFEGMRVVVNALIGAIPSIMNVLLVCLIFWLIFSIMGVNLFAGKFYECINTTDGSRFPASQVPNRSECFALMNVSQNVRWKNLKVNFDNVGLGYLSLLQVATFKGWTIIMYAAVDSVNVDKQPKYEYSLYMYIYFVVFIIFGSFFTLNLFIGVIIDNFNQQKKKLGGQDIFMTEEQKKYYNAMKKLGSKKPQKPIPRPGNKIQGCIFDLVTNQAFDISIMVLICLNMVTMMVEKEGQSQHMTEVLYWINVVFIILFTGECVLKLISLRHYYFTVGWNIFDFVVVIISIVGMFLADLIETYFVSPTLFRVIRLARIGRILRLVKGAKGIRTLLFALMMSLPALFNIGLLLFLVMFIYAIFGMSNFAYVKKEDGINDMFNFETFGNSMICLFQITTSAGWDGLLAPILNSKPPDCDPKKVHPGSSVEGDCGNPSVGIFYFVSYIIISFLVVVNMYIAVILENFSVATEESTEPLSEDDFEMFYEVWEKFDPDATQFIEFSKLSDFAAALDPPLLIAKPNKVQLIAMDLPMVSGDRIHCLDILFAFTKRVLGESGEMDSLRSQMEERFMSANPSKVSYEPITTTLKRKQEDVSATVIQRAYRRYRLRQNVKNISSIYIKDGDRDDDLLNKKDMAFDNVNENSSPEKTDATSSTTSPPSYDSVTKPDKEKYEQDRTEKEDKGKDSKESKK
Description: (§1) Compounds were tested on human Nav1.7 and Nav1.5 channels stably expressed in HEK 293 cells. […] Cells were sealed on a planar substrate using the Population Patch Plate (PPC) technology. Electrical access was obtained using both nystatin and amphotericin. A double-pulse protocol was used for the determination of IC50 values for inactivated state block. Nav1.7 and Nav1.5 expressing cells were voltage clamped at −100 mV and −110 mV, respectively. A depolarizing prepulse to −10 mV (Nav1.7) or −30 mV (Nav1.5) for 1000 ms followed by a 10 ms repolarization to −100 mV (Nav1.7) or −110 mV (Nav1.5) was given to generate fractional channel inactivation of ˜50%, followed by a 10 ms test pulse to −10 mV (Nav1.7) or −30 mV (Nav1.5) to measure peak current in control conditions and after compound addition. The following recording solutions were used (mM). External: 150 NaCl, 2 CaCl2, 5 KCl, 1 Mg Cl2, 10 HEPES, 12 Dextrose; internal: 120 CsF, 30 CsCl, 10 EGTA, 5 HEPES, 5 NaF, 2 MgCl2.
(§2) For all electrophysiology experiments, offline analysis was used to determine percent inhibition as a function of drug concentration. IC50 values were determined by fitting to the Hill equation.

[2] = biological target: T2, human Nav1.5 channels stably expressed in HEK 293 cells (Homo sapiens, UniProt Q14524); experiment: IonWorks Quattro automated patch-clamp, inactivated state block of Nav1.5 (selectivity); type: cell-based; conditions: IonWorks measurement, both channels in HEK 293 cells
T2 construct: expressed in transfected cells; host or cells: HEK 293
T2 sequence (Q14524 whole entry): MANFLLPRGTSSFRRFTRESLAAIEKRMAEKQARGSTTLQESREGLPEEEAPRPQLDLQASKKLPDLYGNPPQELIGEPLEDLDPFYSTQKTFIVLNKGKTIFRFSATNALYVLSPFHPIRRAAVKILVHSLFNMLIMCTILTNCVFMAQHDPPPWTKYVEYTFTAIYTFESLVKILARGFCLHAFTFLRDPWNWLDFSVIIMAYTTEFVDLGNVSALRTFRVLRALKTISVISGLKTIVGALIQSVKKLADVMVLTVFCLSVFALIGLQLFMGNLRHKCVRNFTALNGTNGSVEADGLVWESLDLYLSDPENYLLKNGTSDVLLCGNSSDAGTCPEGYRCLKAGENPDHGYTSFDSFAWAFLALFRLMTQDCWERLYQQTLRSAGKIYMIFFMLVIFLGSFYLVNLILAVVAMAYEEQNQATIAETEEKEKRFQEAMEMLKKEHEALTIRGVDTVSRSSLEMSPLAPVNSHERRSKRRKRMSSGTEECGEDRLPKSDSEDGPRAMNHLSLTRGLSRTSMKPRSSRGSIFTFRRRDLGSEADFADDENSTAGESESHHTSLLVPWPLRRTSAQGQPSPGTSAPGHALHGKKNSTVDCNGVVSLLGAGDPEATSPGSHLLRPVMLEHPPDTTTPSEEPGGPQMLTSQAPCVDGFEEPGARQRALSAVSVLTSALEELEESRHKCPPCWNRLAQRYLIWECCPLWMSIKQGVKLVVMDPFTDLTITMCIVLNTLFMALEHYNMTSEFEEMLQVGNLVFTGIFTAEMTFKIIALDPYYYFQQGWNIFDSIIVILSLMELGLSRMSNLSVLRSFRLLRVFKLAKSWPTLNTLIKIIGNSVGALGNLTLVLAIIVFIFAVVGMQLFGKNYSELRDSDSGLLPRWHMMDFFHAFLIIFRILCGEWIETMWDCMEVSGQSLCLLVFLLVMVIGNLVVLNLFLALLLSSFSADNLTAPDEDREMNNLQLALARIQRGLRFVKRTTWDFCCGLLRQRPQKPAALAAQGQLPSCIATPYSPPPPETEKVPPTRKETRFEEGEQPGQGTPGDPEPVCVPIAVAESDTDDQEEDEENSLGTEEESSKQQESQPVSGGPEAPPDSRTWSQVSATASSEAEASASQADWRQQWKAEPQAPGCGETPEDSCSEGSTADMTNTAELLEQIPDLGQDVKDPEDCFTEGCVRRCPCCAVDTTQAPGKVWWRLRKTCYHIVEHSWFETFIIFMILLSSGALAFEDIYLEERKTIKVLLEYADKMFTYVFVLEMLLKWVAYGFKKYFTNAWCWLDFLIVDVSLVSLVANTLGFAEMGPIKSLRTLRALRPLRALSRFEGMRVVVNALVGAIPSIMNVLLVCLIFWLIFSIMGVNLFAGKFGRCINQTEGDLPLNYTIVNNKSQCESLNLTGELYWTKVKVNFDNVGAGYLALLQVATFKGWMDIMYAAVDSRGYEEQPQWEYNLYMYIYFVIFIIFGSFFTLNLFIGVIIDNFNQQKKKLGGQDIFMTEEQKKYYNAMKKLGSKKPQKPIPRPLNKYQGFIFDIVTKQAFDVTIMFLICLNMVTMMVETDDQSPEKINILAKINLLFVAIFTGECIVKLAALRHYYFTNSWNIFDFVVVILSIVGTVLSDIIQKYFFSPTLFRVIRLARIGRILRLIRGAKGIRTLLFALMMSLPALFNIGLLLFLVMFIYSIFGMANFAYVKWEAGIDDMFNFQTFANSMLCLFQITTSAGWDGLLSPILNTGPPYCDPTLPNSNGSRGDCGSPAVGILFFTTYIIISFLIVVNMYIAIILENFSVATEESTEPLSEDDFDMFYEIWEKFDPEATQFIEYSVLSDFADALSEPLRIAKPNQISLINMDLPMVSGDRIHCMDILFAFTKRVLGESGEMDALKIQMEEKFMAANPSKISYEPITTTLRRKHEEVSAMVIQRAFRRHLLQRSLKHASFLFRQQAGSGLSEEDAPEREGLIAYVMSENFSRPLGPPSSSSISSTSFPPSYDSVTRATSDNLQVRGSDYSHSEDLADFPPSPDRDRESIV
Description: as §1, §2

IC50 [1]	SMILES	ratio of Nav1.7 potency:Nav 1.5 potency [2]
0.19 µM	CN[C@H](CNc1cc(F)c(S(=O)(=O)Nc2ncc(F)s2)cc1Cl)Cc1ccccc1 [Ex1-27, (S)-5-chloro-2-fluoro-N-(5-fluorothiazol-2-yl)-4-((2-(methylamino)-3-phenylpropyl)amino)-benzenesulfonamide]	> 174
0.03 µM	CCCC[C@@H](CNc1cc(F)c(S(=O)(=O)Nc2ncc(F)s2)cc1Cl)NC(C)C [Ex7-6, (S)-5-chloro-2-fluoro-N-(5-fluorothiazol-2-yl)-4-((2-(isopropylamino)hexyl)amino) benzenesulfonamide]	> 533
0.012 µM	CN[C@@H](CCC1(C)CC1)CNc1cc(F)c(S(=O)(=O)Nc2ncc(F)s2)cc1Cl [Ex2-23, (S)-5-chloro-2-fluoro-N-(5-fluorothiazol-2-yl)-4-((2-(methylamino)-4-(1-methylcyclopropyl)butyl)amino)benzenesulfonamide]	> 2750
0.036 µM	CN[C@H](CNc1cc(F)c(S(=O)(=O)Nc2nccs2)cc1Cl)Cc1cccc(Br)c1 [Ex1-23, (S)-4-((3-(3-bromo-phenyl)-2-(methylamino)-propyl)amino)-5-chloro-2-fluoro-N-(thiazol-2-yl)-benzenesulfonamide]	> 917
0.14 µM	CN[C@@H](CCc1ccccc1)CNc1cc(F)c(S(=O)(=O)Nc2ncc(F)s2)cc1Cl [Ex1-22, (S)-5-chloro-2-fluoro-N-(5-fluorothiazol-2-yl)-4-((2-(methylamino)-4-phenylbutyl)amino)-benzenesulfonamide]	> 236
0.44 µM	CN[C@H](CNc1cc(F)c(S(=O)(=O)Nc2nccs2)cc1Cl)Cc1ccccc1Br [Ex1-24, (S)-4-((3-(2-bromo-phenyl)-2-(methylamino)-propyl)amino)-5-chloro-2-fluoro-N-(thiazol-2-yl)-benzenesulfonamide]	> 75
0.67 µM	CN[C@@H](CCC(C)(C)C)CNc1cc(F)c(S(=O)(=O)Nc2ncc(F)s2)cc1Cl [Ex2-15, (S)-5-chloro-4-((5,5-dimethyl-2-(methylamino)hexyl)amino)-2-fluoro-N-(5-fluorothiazol-2-yl)-benzenesulfonamide]	> 49
0.061 µM	CN[C@H](CNc1cc(F)c(S(=O)(=O)Nc2nccs2)cc1Cl)Cc1ccc(F)cc1 (single isomer, unassigned) [Ex1-12]	> 541
0.054 µM	CN[C@H](CNc1cc(F)c(S(=O)(=O)Nc2ncc(F)s2)cc1Cl)CC12CC(C1)C2 [Ex2-13, (S)-4-((3-(bicyclo[1.1.1]pentan-1-yl)-2-(methylamino)propyl)-amino)-5-chloro-2-fluoro-N-(5-fluorothiazol-2-yl)-benzenesulfonamide]	> 611
0.024 µM	CN[C@H](CNc1cc(F)c(S(=O)(=O)Nc2nccs2)cc1Cl)Cc1cccc(Cl)c1 [Ex1-19, (S)-5-chloro-4-((3-(3-chlorophenyl)-2-(methyl-amino)propyl)-amino)-2-fluoro-N-(thiazol-2-yl)-benzenesulfonamide]	> 1375
0.64 µM	CN[C@H](CNc1cc(F)c(S(=O)(=O)Nc2ncc(F)s2)cc1C#N)CC(C)(C)C [Ex4-3, (S)-5-cyano-4-((4,4-dimethyl-2-(methylamino)pentyl)amino)-2-fluoro-N-(5-fluorothiazol-2-yl)benzenesulfonamide]	> 52
0.03 µM	CN[C@H](CNc1cc(F)c(S(=O)(=O)Nc2nccs2)cc1Cl)Cc1ccc(F)c(F)c1 [Ex1-31, (S)-5-chloro-4-((3-(3,4-difluorophenyl)-2-(methyl-amino)propyl)amino)-2-fluoro-N-(thiazol-2-yl)-benzenesulfonamide]	> 1100
0.033 µM	CN[C@H](CNc1cc(F)c(S(=O)(=O)Nc2nccs2)cc1Cl)Cc1ccc(Cl)cc1 [Ex1-34, (S)-5-chloro-4-((3-(4-chlorophenyl)-2-(methyl-amino)propyl)amino)-2-fluoro-N-(thiazol-2-yl)-benzenesulfonamide]	> 1000
0.068 µM	CN[C@H](CNc1cc(F)c(S(=O)(=O)Nc2ncc(F)s2)cc1Cl)CC1CC1(C)C (stereo partly drawn) [Ex2-20, 5-chloro-4-(((2S)-3-(2,2-dimethylcyclopropyl)-2-(methylamino)propyl)amino)-2-fluoro-N-(5-fluorothiazol-2-yl)-benzenesulfonamide]	> 485
0.8 µM	CN[C@@H](CCC1CC1)CNc1cc(F)c(S(=O)(=O)Nc2ncc(F)s2)cc1Cl [Ex2-19, (S)-5-chloro-4-((4-cyclopropyl-2-(methylamino)butyl)amino)-2-fluoro-N-(5-fluorothiazol-2-yl)-benzenesulfonamide]	> 41
0.13 µM	CN[C@H](CNc1cc(F)c(S(=O)(=O)Nc2nccs2)cc1Cl)Cc1cccc(F)c1Br [Ex1-33, (S)-4-((3-(2-bromo-3-fluorophenyl)-2-(methyl-amino)propyl)-amino)-5-chloro-2-fluoro-N-(thiazol-2-yl)-benzenesulfonamide]	> 254
0.2 µM	CN[C@H](CNc1cc(F)c(S(=O)(=O)Nc2ncns2)cc1Cl)Cc1ccccc1 [Ex1-26, (S)-5-chloro-2-fluoro-4-((2-(methylamino)-3-phenylpropyl)amino)-N-(1,2,4-thiadiazol-5-yl)-benzenesulfonamide]	
0.17 µM	CN[C@H](CNc1cc(F)c(S(=O)(=O)Nc2ncc(F)s2)cc1Cl)CC1(C(F)(F)F)CC1 [Ex2-14, (S)-5-chloro-2-fluoro-N-(5-fluorothiazol-2-yl)-4-((2-(methylamino)-3-(1-(trifluoromethyl)cyclopropyl)-propyl)amino)benzenesulfonamide]	
0.3 µM	CN[C@@H](CCC1CCC1)CNc1cc(F)c(S(=O)(=O)Nc2ncc(F)s2)cc1Cl [Ex3-13, (S)-5-chloro-4-((4-cyclobutyl-2-(methylamino)butyl)amino)-2-fluoro-N-(5-fluorothiazol-2-yl)-benzenesulfonamide]	> 110
0.064 µM	[2H]C([2H])([2H])N[C@H](CNc1cc(F)c(S(=O)(=O)Nc2ncc(F)s2)cc1Cl)CC(C)(C)C [Ex3-14, (S)-5-chloro-4-((4,4-dimethyl-2-((methyl-d3)amino)pentyl)amino)-2-fluoro-N-(5-fluorothiazol-2-yl)-benzenesulfonamide]	> 429
0.17 µM	CN[C@H](CNc1cc(F)c(S(=O)(=O)Nc2nccs2)cc1Cl)Cc1ccc(F)cc1Br [Ex1-32, (S)-4-((3-(2-bromo-4-fluorophenyl)-2-(methyl-amino)propyl)-amino)-5-chloro-2-fluoro-N-(thiazol-2-yl)-benzenesulfonamide]	
0.11 µM	CN[C@H](CNc1cc(F)c(S(=O)(=O)Nc2ncc(F)s2)cc1Cl)CC1CCCC1 (single isomer, unassigned) [Ex3-11]	
0.11 µM	CN[C@H](CNc1cc(F)c(S(=O)(=O)Nc2nccs2)cc1Cl)Cc1ccc(Br)cc1 [Ex1-25, (S)-4-((3-(4-bromo-phenyl)-2-(methylamino)-propyl)amino)-5-chloro-2-fluoro-N-(thiazol-2-yl)-benzenesulfonamide]	
0.11 µM	CN[C@H](CNc1cc(F)c(S(=O)(=O)Nc2ncc(F)s2)cc1Cl)CC1CC1(Cl)Cl (stereo partly drawn) [Ex2-21, 5-chloro-4-(((2S)-3-(2,2-dichlorocyclopropyl)-2-(methylamino)propyl)amino)-2-fluoro-N-(5-fluorothiazol-2-yl)-benzenesulfonamide]	
0.2 µM	CN[C@H](CNc1cc(F)c(S(=O)(=O)Nc2nccs2)cc1Cl)Cc1ccccc1 [Ex1-7, (S)-5-chloro-2-fluoro-4-((2-(methylamino)-3-phenylpropyl)amino)-N-(thiazol-2-yl)benzenesulfonamide]	
0.2 µM	CN[C@@H](CCc1ccccc1)CNc1cc(F)c(S(=O)(=O)Nc2nccs2)cc1Cl [Ex1-21, (S)-5-chloro-2-fluoro-4-((2-(methylamino)-4-phenylbutyl)amino)-N-(thiazol-2-yl)-benzenesulfonamide]	
0.15 µM	CN(C)[C@H](CNc1cc(F)c(S(=O)(=O)Nc2ncc(F)s2)cc1Cl)CC1(C)CC1 [Ex7-3, (S)-5-chloro-4-((2-(dimethylamino)-3-(1-methylcyclopropyl)propyl)amino)-2-fluoro-N-(5-fluorothiazol-2-yl)benzenesulfonamide]	

SMILES	IC50 [1]	ratio of Nav1.7 potency:Nav 1.5 potency [2]
CN(C)[C@H](CNc1cc(F)c(S(=O)(=O)Nc2ncc(F)s2)cc1Cl)C[Si](C)(C)C [Ex7-2, (R)-5-chloro-4-((2-(dimethylamino)-3-(trimethylsilyl)propyl)-amino)-2-fluoro-N-(5-fluorothiazol-2-yl)benzenesulfonamide]	0.018 µM	> 889
